Reference: article PMC7251097, “Aspartate/asparagine-β-hydroxylase: a high-throughput mass spectrometric assay for discovery of small molecule inhibitors” (Scientific Reports, 2020)
Structures can show the parent of a compound that is named as a salt. Where two headings read alike, the source gives them in different places. Blank lines part the entries; values can stand above or below the compound they belong to.

Target: T1, His6-AspH315–758 (human aspartate/asparagine-β-hydroxylase, AspH) (Homo sapiens, UniProt Q12797)
T1 construct: N-Terminally His6-tagged human AspH315–758 (His6-AspH315–758) was produced in E. coli BL21 (DE3) cells; made in house; host or cells: E. coli BL21 (DE3), pET-28a(+) vector
T1 sequence (Q12797 315-758): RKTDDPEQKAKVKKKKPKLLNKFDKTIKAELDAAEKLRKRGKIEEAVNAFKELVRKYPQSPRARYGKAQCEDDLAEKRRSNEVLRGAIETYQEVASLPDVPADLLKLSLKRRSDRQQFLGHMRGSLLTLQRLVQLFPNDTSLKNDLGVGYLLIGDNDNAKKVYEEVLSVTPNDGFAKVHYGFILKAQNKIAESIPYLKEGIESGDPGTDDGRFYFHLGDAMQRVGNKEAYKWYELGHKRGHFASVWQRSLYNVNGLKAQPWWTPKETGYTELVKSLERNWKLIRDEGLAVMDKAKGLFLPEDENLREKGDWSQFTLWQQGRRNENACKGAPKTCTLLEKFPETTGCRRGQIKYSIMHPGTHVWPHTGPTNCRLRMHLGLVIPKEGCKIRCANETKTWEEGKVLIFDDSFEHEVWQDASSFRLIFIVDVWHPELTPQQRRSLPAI
Experiment: SPE-MS AspH inhibition assay (LOPAC screen at fixed 20 μM and IC50 dose-response), hydroxylation of cyclic peptide hFX-CP101–119
Type: biochemical
Details: for Plate 1 (% inhibition) / Plate 1 (% conversion): LOPAC compound at fixed 20 uM; for Plate 1 (% inhibition): plate 1, normalised to DMSO and 2,4-PDCA controls

[1] = LOPAC compound at 20uM, plate 2, conversion of substrate peptide
[2] = LOPAC compound at 20uM, plate 3, conversion of substrate peptide
[3] = LOPAC Plate 4, compound at 20 uM, substrate conversion
[4] = LOPAC compound at 20uM, plate 2, normalised to DMSO and 2,4-PDCA controls, read-out: Plate 2 (% inhibition)
[5] = LOPAC Plate 4, compound at 20 uM

Structure (SMILES): CCCCCC(O)CCCC(=O)O.[Na] (centres unmarked) [5-hydroxydecanoic acid sodium]
Plate 2 (% conversion) [1]: 36.96% | Plate 2 (% inhibition) (LOPAC compound at 20uM, plate 2, normalised to DMSO and 2,4-PDCA controls): -3.01%

Structure (SMILES): C[C@]12C=CC(=O)C=C1CC[C@H]1[C@@H]3C[C@@H](O)[C@](O)(C(=O)CO)[C@@]3(C)C[C@H](O)[C@@]12F [Triamcinolone]
% conversion [3]: 30.89%

Structure (SMILES): NC12CC3CC(CC(C3)C1)C2 [Amantadine hydrochloride]
Plate 1 (% inhibition): -1.83% | Plate 1 (% conversion) (substrate conversion): 36.49%

Structure (SMILES): C[n+]1cc2c3c(ccc2c2ccc4cc5c(cc4c21)OCO5)OCO3 [Sanguinarine chloride]
% conversion: 10.82%

Structure (SMILES): CC[C@H]1CN2CCc3cc(OC)c(OC)cc3[C@@H]2C[C@@H]1C[C@H]1NCCc2cc(OC)c(OC)cc21 [Emetine dihydrochloride hydrate]
Plate 2 (% conversion): 37.46% | inhibition at 20 µM (read-out: Plate 2 (% inhibition)): -4.49%

Structure (SMILES): C[N+]1(C)[C@@H]2CC[C@H]1C[C@@H](OC(=O)C(CO)c1ccccc1)C2 (some centres unmarked) [Atropine methyl bromide]
Plate 1 (% inhibition): -14.40% | Plate 1 (% conversion) (substrate conversion): 40.71%

Structure (SMILES): Cc1cc(O)c2c(c1)C(=O)c1cc(O)cc(O)c1C2=O [Emodin]
Plate 2 (% conversion): 37.82% | inhibition at 20 µM [4]: -5.58%

Structure (SMILES): CC(C)(C)NCC(O)c1cc(O)cc(O)c1.CC(C)(C)NCC(O)c1cc(O)cc(O)c1.O=S(=O)(O)O (centres unmarked) [Terbutaline hemisulfate]
% inhibition [5]: 5.48% | % conversion [3]: 34.60%

Structure (SMILES): COc1ccc2c(c1)CC[C@@H]1[C@@H]2CC[C@]2(C)[C@@H](NCCCCCCN3C(=O)CCC3=O)CC[C@@H]12 [U-73343]
Plate 3 (% conversion): 43.26%

Structure (SMILES): N[C@@H](COP(=O)(O)O)C(=O)O [O-Phospho-L-serine]
Plate 3 (% conversion) [2]: 35.30%

Structure (SMILES): NCCCCCCCCCCN [1,10-Diaminodecane]
Plate 2 (% conversion) [1]: 36.39% | inhibition at 20 µM [4]: -1.3%

Structure (SMILES): C#CC(N)CCC(=O)O (centres unmarked) [gamma-Acetylinic GABA]
Plate 1 (% inhibition): -4.92% | Plate 1 (% conversion) (substrate conversion): 37.52%

Structure (SMILES): CCN(CC)CCOC(=O)c1cc(Cl)c(N)cc1OC.Cl [SDZ-205,557 hydrochloride]
% inhibition [5]: -2.39% | % conversion [3]: 37.29%

Structure (SMILES): Cn1ccc2cc3c(cc21)CCN3C(=O)Nc1cccnc1 [SB 206553 hydrochloride]
% conversion: 28.82%

The remaining lines, values ahead:

Plate 1 (% inhibition): -5.18% | Plate 1 (% conversion) (substrate conversion): 37.61%
Structure (SMILES): Clc1ccc(C(c2ccccc2Cl)C(Cl)Cl)cc1 (centres unmarked)

Plate 3 (% conversion) [2]: 7.99%
Structure (SMILES): NS(=O)(=O)c1cccc2c1c([N+](=O)[O-])cc1nc([O-])c([O-])nc12.[Na+].[Na+] [NBQX disodium]

Plate 3 (% conversion) [2]: 30.44%
Structure (SMILES): N[C@@H](Cc1ccc(O)c(I)c1)C(=O)O [3-Iodo-L-tyrosine]

Plate 2 (% conversion) [1]: 40.94% | inhibition at 20 µM [4]: -14.9%
Structure (SMILES): CNCCCN1c2ccccc2CCc2ccccc21 [Desipramine hydrochloride]

% conversion [3]: 27.49%
Structure (SMILES): CCCN(CCc1ccccc1)C1CCc2c(O)cccc2C1.Cl (racemic) [(±)-PPHT hydrochloride]

inhibition at 20 µM: -23.1%
Structure (SMILES): CN(C)CCCN1c2ccccc2Sc2ccc(C(F)(F)F)cc21 [Triflupromazine hydrochloride]

Plate 2 (% conversion) [1]: 35.33% | inhibition at 20 µM [4]: 1.86%
Structure (SMILES): CC(C)C[C@H](NC(=O)[C@H](O)[C@H](N)Cc1ccccc1)C(=O)O [Epibestatin hydrochloride]

% conversion [3]: 11.56%
Structure (SMILES): CCN1CCC[C@H]1CNC(=O)c1c(O)c(Cl)cc(Cl)c1OC.O=C(O)C(O)C(O)C(=O)O (racemic) [S(+)-Raclopride L-tartrate]

% conversion [3]: 29.69%
Structure (SMILES): O=C(CCc1ccc(O)cc1)c1c(O)cc(O)cc1O [Phloretin]

Inhibition at 20 µM [%] (AspH activity, fixed compound concentration 20 μM, initial LOPAC screen, 0.5%v/v DMSO): 95.0% | Plate 1 (% inhibition): 95.00% | Plate 1 (% conversion) (substrate conversion): 3.97%
Structure (SMILES): Br.C=CCN1CCc2c(cc(O)c(O)c2Br)[C@@H](c2ccccc2)C1 [R(+)-6-Bromo-APB hydrobromide, reference compound]

Plate 3 (% conversion) [2]: 35.06%
Structure (SMILES): O=c1onc2n1-c1cc(Br)ccc1OC2 [NS 2028]

% conversion [3]: 27.07%
Structure (SMILES): CC(C)NC[C@H](O)COc1cccc2ccccc12 [(S)-Propranolol hydrochloride]

% conversion [3]: 43.98%
Structure (SMILES): CSc1ccc2c(c1)N(CCC1CCCCN1C)c1ccccc1S2 (centres unmarked) [Thioridazine hydrochloride]
